{"source": "PubChem BioAssay AID1745844", "about": "(Carcinogenic Potency Database (CPDB), 2022)", "tested_on": "rodent lifetime carcinogenesis bioassay, tumor incidence TD50", "assay": "chronic cancer bioassays in animals – CPDB, compiled studies (AID 1745844)", "note": "Calls of active or inactive are those of the source. No rule for the calls is given here.", "data": [{"smiles": "Cl[C@@H]1OCCO[C@H]1Cl", "values": [{"measurement": "TD50", "setting": "mouse, strain Ha/ICR, females, i.p., site: lung, lesion: papillary tumor, dosed 64 weeks, study length 64 weeks", "result": 7.04, "unit": "mg/kg/day"}]}, {"smiles": "CN(C)c1ccc(C(=N)c2ccc(N(C)C)cc2)cc1", "values": [{"measurement": "TD50", "setting": "mouse, strain CBA, females, in feed, site: liver, lesion: hepatoma, dosed 52 weeks, study length 99 weeks", "result": 67.7, "unit": "mg/kg/day"}, {"measurement": "TD50", "setting": "mouse, strain CBA, males, in feed, site: liver, lesion: hepatoma, dosed 52 weeks, study length 79 weeks", "result": 77.5, "unit": "mg/kg/day"}, {"measurement": "TD50", "setting": "mouse, strain albino, females, in feed, site: liver, lesion: hepatoma, dosed 52 weeks, study length 79 weeks", "result": 94.3, "unit": "mg/kg/day"}, {"measurement": "TD50", "setting": "mouse, strain albino, males, in feed, site: liver, lesion: hepatoma, dosed 52 weeks, study length 84 weeks", "result": 39.2, "unit": "mg/kg/day"}, {"measurement": "TD50", "setting": "rat, strain Wilmslow Wistar, males, in feed, site: liver, lesion: hepatoma, dosed 87 weeks, study length 125 weeks", "result": 11, "unit": "mg/kg/day"}]}, {"smiles": "O=c1cc[nH]c(=S)[nH]1", "values": [{"measurement": "TD50", "setting": "mouse, strain C3H (MTV+), females, in feed, site: liver, lesion: hepatoma, dosed 73 weeks, study length 73 weeks", "result": 63.3, "unit": "mg/kg/day"}, {"measurement": "TD50", "setting": "mouse, strain C3H (MTV+), males, in feed, site: liver, lesion: hepatoma, dosed 73 weeks, study length 73 weeks", "result": 48.6, "unit": "mg/kg/day"}, {"measurement": "carcinogen call", "setting": "mouse, strain TM, females, in feed, site: liver, lesion: hepatoma, dosed 73 weeks, study length 73 weeks", "result": "negative (inactive)"}, {"measurement": "carcinogen call", "setting": "mouse, strain TM, males, in feed, site: liver, lesion: hepatoma, dosed 73 weeks, study length 73 weeks", "result": "negative (inactive)"}, {"measurement": "TD50", "setting": "rat, strain Fischer 344, females, in feed, site: thyroid gland, lesion: malignant tumor, dosed 103 weeks, study length 103 weeks", "result": 22.9, "unit": "mg/kg/day"}, {"measurement": "TD50", "setting": "rat, strain Fischer 344, males, in feed, site: thyroid gland, lesion: malignant tumor, dosed 103 weeks, study length 103 weeks", "result": 8.05, "unit": "mg/kg/day"}]}, {"smiles": "CC1CN(N=O)C(=O)O1", "note": "(centres undefined)", "values": [{"measurement": "TD50", "setting": "hamster, strain Syrian Golden, females, by gavage, site: forestomach, lesion: several types, types named in the paper, dosed 28 weeks, study length 60 weeks", "result": 0.172, "unit": "mg/kg/day"}]}, {"smiles": "CCCCOC(=O)c1ccc(O)cc1", "values": [{"measurement": "TD50", "setting": "mouse, strain ICR/Jcl, females, in feed, site: any site (literature study), lesion: several types, types named in the paper, dosed 102 weeks, study length 106 weeks", "result": "2720 mg/kg/day (inactive)"}, {"measurement": "carcinogen call", "setting": "mouse, strain ICR/Jcl, females, in feed, site: liver, lesion: one or several types, types not named, dosed 102 weeks, study length 106 weeks", "result": "negative (inactive)"}, {"measurement": "TD50", "setting": "mouse, strain ICR/Jcl, females, in feed, site: lung, lesion: one or several types, types not named, dosed 102 weeks, study length 106 weeks", "result": "5100 mg/kg/day (inactive)"}, {"measurement": "TD50", "setting": "mouse, strain ICR/Jcl, males, in feed, site: any site (literature study), lesion: several types, types named in the paper, dosed 102 weeks, study length 106 weeks", "result": "5240 mg/kg/day (inactive)"}, {"measurement": "TD50", "setting": "mouse, strain ICR/Jcl, males, in feed, site: liver, lesion: one or several types, types not named, dosed 102 weeks, study length 106 weeks", "result": "27400 mg/kg/day (inactive)"}, {"measurement": "TD50", "setting": "mouse, strain ICR/Jcl, males, in feed, site: lung, lesion: one or several types, types not named, dosed 102 weeks, study length 106 weeks", "result": "119000 mg/kg/day (inactive)"}]}]}
